Reference: the NIST ThermoML archive (doi:10.1016/j.fluid.2013.08.005)
Values joined by “and” are separate entries in the source; they are usually repeats but may differ in a detail not shown here. Equal entries are not always repeated. ± gives the expanded uncertainty stated by the source.

Legend:
[1] = molar heat capacity at constant pressure; settings: 101 kPa, Liquid, Large sample (1 g) DSC
[2] = molar heat capacity at constant pressure; mn = molality of the nth substance listed, in mol/kg; settings: 101 kPa, Liquid, Large sample (1 g) DSC, m2 = 0
[3] = mn = molality of the nth substance listed, in mol/kg; settings: 298.15 K; 101 kPa; Liquid; Alternating current cell with electrodes; m2 = 0

Row | Compound | molar heat capacity at constant pressure ([1]; 298.15 K) | molar heat capacity at constant pressure ([1]; 303.15 K) | molar heat capacity at constant pressure ([1]; 308.15 K) | molar heat capacity at constant pressure ([1]; 313.15 K) | molar heat capacity at constant pressure ([2]; 298.15 K) [J/K/mol] | molar heat capacity at constant pressure ([2]; 303.15 K) [J/K/mol] | molar heat capacity at constant pressure ([2]; 308.15 K) [J/K/mol] | molar heat capacity at constant pressure ([2]; 313.15 K) [J/K/mol] | electrical conductivity [3] [S/m]
1 | O [water] | 75.37 ± 1.3 J/K/mol and 75.35 ± 1.3 J/K/mol | 75.34 ± 1.3 J/K/mol and 75.32 ± 1.3 J/K/mol | 75.33 ± 1.3 J/K/mol and 75.32 ± 1.3 J/K/mol | 75.34 ± 1.3 J/K/mol and 75.33 ± 1.3 J/K/mol | – | – | – | – | –
2 | O [water] + CCCCCCCC[N+](C)(C)C.[Br-] | – | – | – | – | 75.35 ± 1.3 | 75.32 ± 1.3 | 75.32 ± 1.3 | 75.33 ± 1.3 | –
3 | O [water] + CCCCCC[N+](C)(C)C.[Br-] | – | – | – | – | 75.37 ± 1.3 | 75.34 ± 1.3 | 75.33 ± 1.3 | 75.34 ± 1.3 | 0.239 ± 0.0095
